Where two headings read alike, the source gives them in different places.
What was measured:
[1] = target: T1, interaction between Bcl-2 and Bax (Homo sapiens, UniProt P10415); assay: intracellular fluorescence polarization energy transfer (FRET), Hela cells transfected with Bcl-2-CFP and Bax-YFP; type: cell-based; conditions: for Time for which the compound interfered with the interaction between Bcl-2 and Bax: goes with the concentration of E11; for Concentration at which the compound interfered with the interaction between Bcl-2 and Bax: goes with the time of E12
T1 construct: expressed in transfected cells; host or cells: Hela cells
Experimental: 24 hours later (please refer to FIG. 2), the cells were washed with PBS for three times. The fluorescence value was detected by GENIOS fluorescence enzyme-labelled meter (TECAN, Swiss). In time-dependent experiment, the transfected cells were inoculated in a 6-well plate, after that, 40 μM of the compound was added thereinto. 3, 6 and 24 hours later (FIG. 3), the fluorescence intensities were detected by plate reader. As for the cell group in which only Bcl-2-CFP plasmid was transfected, the values at 475 nm emission wave length and 433 nm excitation wave length were recorded. As for the cell group in which only Bax-YFP plasmid was transfected, the values at 527 nm emission wave length and 505 nm excitation wave length were recorded. […] The ratio of fluorescence intensity at 527 nm and 475 nm emission wave lengths was FRET. The FRET for the control group in which the plasmid was solely transfected was set as 1.0. […] The cellular vitality was detected by MTT method.
Wherein the concentration and time meant that the detected compound interfered with the interaction between Bcl-2 and Bax at the concentration for the time period.

[2] = target: T2, GST-Bcl-2 protein (Homo sapiens, UniProt P10415); assay: fluorescence polarization assay, competitive binding against FAM-Bid peptide; conditions: Table 3; FAM-Bid competition; table does not say whether Bcl-2 or Mcl-1; read-out: Binding constant
T2 construct: fused on or other part: GST tag on Bcl-2
Experimental: A Bid BH3 peptide (amino acids: 79-99: […]) having 21 amino acids was synthesized and marked with 6-carboxyfluorescein N-succinimidyl ester (FAM) as fluorescent tag (FAM-Bid) at the N-terminal. The reaction system used in the competitive binding experiment was GST-Bcl-2 protein (40 nM) or Mcl-1 protein, which was dissolved in the reaction buffer (100 mM K3PO4, pH 7.5; 100 μg/ml bovine γ albumin; 0.02% sodium azide) together with FAM-Bid polypeptide (5 nM). In a 96-well plate, 100 μL of the reaction system was added into each well. Then 1 μL different concentration of 3-thiomorpholinyl-8-oxo-8H-acenaphtho[1,2-b]pyrrole-9-carbonitrile mother solution to be detected dissolved in DMSO was added thereinto until the final concentration met the experimental design requirements. Meanwhile, two control groups were established, one with the reaction system only contains Bcl-2 or Mcl-1 and FAM-Bid (equivalent to 0% inhibition rate), the other with the reaction system only containing FAM-Bid peptide. After 4 hours of incubation, the 96-well plate was detected by enzyme-labelled meter. The fluorescent polarization value (mP) was tested at […]. Ki value was deduced according to calculation formula. The competitive binding constant between the compound and Bcl-2 was 310 nM.

[3] = tested on: MCF-7 cells; assay: cytotoxicity depending on BAX/BAK, MTT, MCF-7 cells with or without BAX/BAK interfering plasmid; type: cell-based
Experimental: 3 ng of BAX/BAK interfering plasmid was transfected into MCF-7 cells by using calcium phosphate coprecipitation method, 24 hours later, the cells were collected. The expressions after the BAX and BAK proteins interfered with RNA was detected by Western, and the cell groups without plasmid transfection were treated similarly and were set as the control group. The transfected cells were inoculated in a 96-well plate (1×10^5 cells/well), the control experiment of the cell group without plasmid transfection was carried out in parallel. The compound 3-thiomorpholinyl-8-oxo-8 H-acenaphtho[1,2-b]pyrrole-9-carbonitrile to be detected was added thereinto according to the concentration gradient designed before the experiment. 48 hours later, the cellular vitality was detected by MTT. The experimental results were shown in FIG. 6, Gossypol as nonspecific BH3 analogue was treated in parallel.

[4] = tested on: Bax protein; assay: co-localization between Bax protein and chondriosome, Bax-YFP transfected MCF-7 cells; type: cell-based; conditions: for Time for which the compound drove the BAX to shift towards the chondriosome: goes with the concentration of E14; for Concentration at which the compound drove the BAX to shift towards the chondriosome: goes with the time of E15
Experimental: 5 ng of Bax-YFP plasmid was transfected into MCF-7 cells by using calcium phosphate coprecipitation method, 24 hours later, the cells were inoculated in a 6-well plate (0.2×10^6 cells/well), and 10 μM of the compound 3-thiomorpholinyl-8-oxo-8 H-acenaphtho[1,2-b]pyrrole-9-carbonitrile to be detected was added thereinto. 6 hours later, the cells were washed with PBS and hatched away from light with 50 nM Mito Tracker Red CMXRos (chondriosome specific probes; red) for 10 minutes. Then the cells were washed with PBS for three times, and the fluorescent image was scanned with Radiance2000 laser confocal microscopy (Bio-Rad, USA). Meanwhile, dual channel scanning was carried out, one channel was used to scan the green fluorescence of Bax-YFP, and the other channel was used to scan the red fluorescence of the CMXRos probe for indicating the chondriosome. […] When the Bax protein was localized on the chondriosome, the green and red fluorescence was superimposed into orange, as shown in FIG. 4.
Other 8 compounds were detected by the same experimental method as described above. […] Wherein the concentration and time meant that the detected compound simulated the BH3-only protein and driven the BAX to shift towards the chondriosome at the concentration for the time period.

[5] = tested on: Mcl-1; assay: Western blotting, compounds compared with cyclodextrin inclusion compounds and complexes, Example 24; type: cell-based; conditions: Table 8; 10 μM or equivalent of inclusion compound, 24 hours
Experimental: (§1) The cells were inoculated in a 6-well plate (2×10^5 cells/well). In the compound group, the compound 3-thiomorpholinyl-8-oxo-8H-acenaphtho[1,2-b]pyrrole-9-carbonitrile was dissolved into DMSO until the final concentration reached 10 μM. In the inclusion group, γ-cyclodextrin inclusion, which had been dissolved into water and was equivalent to 10 μM of the compound, was added thereinto. 24 hours later, the cells were washed with PBS for three times, then the cell sample was collected and cracked with 1×10^6/50 μl cell lysis solution (62.5 mM Tris-HCL pH 6.8; 2% SDS; 10% glycerol; 50 mM DTT; 0.01% bromphenol blue) at low temperature, then the solution was centrifuged and the protein supernatant was collected. The sample was boiled at 100° C. for 5 minutes and then was separated by electrophoresis on 12% SDS-PAGE and transferred. The interest protein was detected by the corresponding antibody. The expression of the interest protein in the cells was detected by horseradish peroxidase-labeled secondary antibodies in combination with ECL coloration method. […] The concentration of the protein bands in the Western figures were carried out semiquantitative analysis and normalization treatment with KODAK Gel Logic 1500 imaging system software.

[6] = tested on: Bcl-2; assay: as above; type: cell-based; conditions: Table 9; 10 μM or equivalent of inclusion compound, 24 hours
Experimental: as §1

[7] = tested on: Bcl-2; assay: Western blotting, inhibition (downregulation) of Bcl-2 in tumor cells, Example 23; type: cell-based; conditions: for inhibition against Bcl-2: Western blotting, tumor cells
Experimental: (§2) The interest protein was detected by the corresponding antibody. The expression of the interest protein in the cells was detected by horseradish peroxidase-labeled secondary antibodies in combination with ECL coloration method. […] The concentration of the protein bands in the Western images were carried out semiquantitative analysis and normalization treatment with KODAK Gel Logic 1500 imaging system software.

[8] = tested on: Mcl-1; assay: Western blotting, inhibition (downregulation) of Mcl-1 in tumor cells, Example 23; type: cell-based; conditions: for inhibition against Mcl-1: Western blotting, tumor cells
Experimental: as §2

[9] = tested on: hepatoma carcinoma cells H22; assay: in vivo tumor model, subcutaneous H22 tumor in Kunming mice; conditions: experimental group 2: peritoneal injection of DMSO solution, 0.3 mg/kg BW every other day, 10 days; tumor volume on the fortieth day
Experimental: The Kunming mice (in China) were randomly divided into groups, with 10 mice in each group. The cultivated hepatoma carcinoma cells H22 were inoculated subcutaneously in the oxter of the mice with 200 μL/mouse. After bearing the cancer cells for five days, the subcutaneous tumor was formed. Then the compound 3-thiomorpholinyl-8-oxo-8H-acenaphtho[1,2-b]pyrrole-9-carbonitrile and γ-cyclodextrin inclusion compound thereof were given by peritoneal injection, and the compound to be detected included by γ-cyclodextrin was given by oral administration. The detection conditions comprise:
Blank control group: the mice were not treated in any manner after the bearing cancer;
Control group (1): the mice were given a peritoneal injection of DMSO solution every other day after the bearing cancer, 10 days in total;
Control group (2): the mice were given a peritoneal injection of cyclodextrin solution every other day after the bearing cancer, 10 days in total;
Experimental group (1): the mice were given a peritoneal injection of DMSO solution equivalent to 0.03 mg/kg BW compound every other day after the bearing cancer, 10 days in total;
Experimental group (2): the mice were given a peritoneal injection of DMSO solution equivalent to 0.3 mg/kg BW compound every other day after the bearing cancer, 10 days in total;
Experimental group (3): the mice were given a peritoneal injection of inclusion compound water solution equivalent to 0.3 mg/kg BW compound every other day after the bearing cancer, 10 days in total;
Experimental group (4): the mice were given an intragastric administration of inclusion compounds water solution equivalent to 0.3 mg/kg BW compound every other day after the bearing cancer, 10 days in total;
During the experimental period, the length-diameter (a) and short diameter (b), which was perpendicular to the length-diameter, of the tumor were detected twice every week. The gross tumor volume was determined according to the formula: ½ab^2. The survival time of the animal was observed. The tumor inhibition rate was calculated by the tumor volume on the fortieth day.

[10] = phase solubility experiment (solubility in water before and after cyclodextrin inclusion or complexation); conditions: Table 1, compound per se, before inclusion

T1 sequence (P10415 whole entry): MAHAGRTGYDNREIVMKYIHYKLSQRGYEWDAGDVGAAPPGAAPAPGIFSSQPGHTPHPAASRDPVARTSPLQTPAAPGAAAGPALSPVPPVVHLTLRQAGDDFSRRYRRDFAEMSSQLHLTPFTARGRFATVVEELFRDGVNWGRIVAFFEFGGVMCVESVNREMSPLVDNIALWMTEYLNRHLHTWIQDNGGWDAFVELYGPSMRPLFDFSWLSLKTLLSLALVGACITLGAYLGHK
T2 sequence (P10415 whole entry, the tested form may be a part): as the sequence (P10415 whole entry) above

For “3-phenoxy-8-oxo-8H-acenaphtho[1,2-b]pyrrole-9-carboxylate”, the “Time for which the compound interfered with the interaction between Bcl-2 and Bax” value (shortened to “Time for which the compound interfered”) [1] was 6 h, the “Concentration at which the compound interfered with the interaction between Bcl-2 and Bax” value [1] was 10.0 µM and the Ki [2] was 790 nM.
For `N#CC1=C2C(=NC1=O)c1cccc3c(C(=O)c4cccc(F)c4)ccc2c13` [3-(3-fluorophenylformyl)-8-oxo-8H-acenaphtho[1,2-b]pyrrole-9-carbonitrile], the “Time for which the compound interfered” value [1] was 6 h, the “Concentration at which the compound interfered with the interaction between Bcl-2 and Bax” value [1] was 10.0 µM and the “dependence of cytotoxicity on BAX/BAK” value [3] was “absolute dependence on BAX/BAK”.
For `N#CC1=C2C(=NC1=O)c1cccc3c(OC4CCOCC4)ccc2c13` [3-(tetrahydro-2H-pyranyl-4-oxo)-8-oxo-8H-acenaphtho[1,2-b]pyrrole-9-carbonitrile], the Ki [2] was 600 nM.
For `O=C(O)C1=C2C(=NC1=O)c1cccc3c(Oc4ccccc4)ccc2c13` [3-phenoxy-8-oxo-8H-acenaphtho[1,2-b]pyrrole-9-carboxylic acid], the “Time for which the compound drove the BAX to shift towards the chondriosome” value (from here on “Time … to shift towards the chondriosome”) [4] was 6 h, the “Concentration at which the compound drove the BAX to shift towards the chondriosome” value [4] was 10.0 µM and the “dependence of cytotoxicity on BAX/BAK” value [3] was “absolute dependence on BAX/BAK”.
For `N#CC1=C2C(=NC1=O)c1ccc(OC3CCOCC3)c3cccc2c13` [4-(tetrahydro-2H-pyranyl-4-oxo)-8-oxo-8H-acenaphtho[1,2-b]pyrrole-9-carbonitrile], the “downregulation of Mcl-1 protein, semiquantitative analysis (band concentration, control = 1)” value (shortened to “downregulation of Mcl-1 protein”) [5] was 0.80, the “downregulation of Bcl-2 protein, semiquantitative analysis (band concentration, control = 1)” value (shortened to “downregulation of Bcl-2 protein”) [6] was 0.77 and the “downregulation of Bcl-2 protein” value ([7]; 2 hours) was 0.71. The “downregulation of Bcl-2 protein” value ([7]; 6 hours) was 0.38, the “inhibition against Bcl-2” value [7] was “had the inhibition against Bcl-2 and Mcl-1 proteins” and the “downregulation of Mcl-1 protein” value ([8]; 6 hours) was 0.99. For the same compound, the “downregulation of Mcl-1 protein” value ([8]; 12 hours) was 0.99, the “downregulation of Mcl-1 protein” value ([8]; 18 hours) was 0.61 and the “downregulation of Mcl-1 protein” value ([8]; 24 hours) was 0.29. For the same compound, the “inhibition against Mcl-1” value [8] was “had the inhibition against Bcl-2 and Mcl-1 proteins” and the tumor inhibition rate [9] was “about 40%”.
For `N#CC1=C2C(=NC1=O)c1ccc(Oc3ccccc3)c3cccc2c13` [4-phenoxy-8-oxo-8H-acenaphtho[1,2-b]pyrrole-9-carbonitrile], the “Time for which the compound interfered” value [1] was 6 h, the “Concentration at which the compound interfered with the interaction between Bcl-2 and Bax” value [1] was 10.0 µM and the “Time … to shift towards the chondriosome” value [4] was 6 h. For the same compound, the “Concentration at which the compound drove the BAX to shift towards the chondriosome” value [4] was 10.0 µM and the Ki [2] was 890 nM.
With `N#CC1=C2C(=NC1=O)c1c(OCc3cccs3)ccc3cccc2c13` [6-(thienyl-2-methoxy)-8-oxo-8H-acenaphtho[1,2-b]pyrrole-9-carbonitrile] the “Time for which the compound interfered” value [1] was 6 h, the “Concentration at which the compound interfered with the interaction between Bcl-2 and Bax” value [1] was 10.0 µM and the “downregulation of Bcl-2 protein” value ([7]; 2 hours) was 0.69. The “downregulation of Bcl-2 protein” value ([7]; 6 hours) was 0.40, the “inhibition against Bcl-2” value [7] was “had the inhibition against Bcl-2 and Mcl-1 proteins” and the “Time … to shift towards the chondriosome” value [4] was 6 h. The “Concentration at which the compound drove the BAX to shift towards the chondriosome” value [4] was 10.0 µM, the “downregulation of Mcl-1 protein” value ([8]; 6 hours) was 0.99 and the “downregulation of Mcl-1 protein” value ([8]; 12 hours) was 0.99. For the same compound, the “downregulation of Mcl-1 protein” value ([8]; 18 hours) was 0.54, the “downregulation of Mcl-1 protein” value ([8]; 24 hours) was 0.33 and the “inhibition against Mcl-1” value [8] was “had the inhibition against Bcl-2 and Mcl-1 proteins”. The Solubility of compounds [10] was 0.35 µM, the “dependence of cytotoxicity on BAX/BAK” value ([3]; MCF-7 cells, 48 hours, MTT) was “absolute dependence on BAX/BAK” and the Ki [2] was 560 nM.
